In the supplement of paper PMC11208160:

assay: recombinant UMI read abundance after kanamycin selection (control-corrected) (log10(CPM+1)); higher = more efficient recombination; extreme values may be limits of the assay; sequences stand for … in AGTGCAGAGAAAATCGGCCAGTTTTCTCTGCCTGCAGTCCGCATGCCGTGGGACCCCTTGGGTTCTAACCTGTTGCCTAGATTTATGCAGCGGACTGCCTTTCTCCCAAAGTGATAAACCGG…AGGTTGGTTTCACT; site = the 11-nt donor
Procedure, shortened: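 In Escherichia coli, a pool of donor and donor-binding-loop pairs, each with a 12-nt UMI, was tested for the IS621 bridge recombinase. Plating was on IPTG (0.07 mM) plus kanamycin, or without selection, in two replicates. Recombinant UMIs were amplified by PCR across the donor–target junction and sequenced, and counts were reported as log10(CPM+1) after averaging and control-derived scaling.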
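Further: IS621 bridge recombinase in Escherichia coli cells against a fixed T5 target plasmid.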

Going from “GAGCGTTCATGGACCGGTTTTCCCGGTAATCCGTATTTGAA (site GAGCGTTCTTT)” to “GAGCTCACATGGACCGGTTTTCCCGGTAATCCGTATTTGAT (site AAGCTCACTAT)”, the “recombinant UMI read abundance (log10)” value falls from 2.83 to 1.48.

“GAGCTCACATGGACCGGTTTTCCCGGTAATCCGTATTTGAT (site CAGCTCACTAT)” and “GAGCTCACATGGACCGGTTTTCCCGGTAATCCGTATTTGAT (site GAACTCACTAT)” are within 0.2 log units of each other in “recombinant UMI read abundance (log10)” value: 0.963 for the first, 0.9 for the second.

First: GAGCTCACATGGACCGGTTTTCCCGGTAATCCGTATTTGAT (site GACCTCACTAT)
Second: GAGCTCACATGGACCGGTTTTCCCGGTAATCCGTATTTGAT (site GAGATCACTAT)
The “recombinant UMI read abundance (log10)” value of the first is higher: 0.584 for the first, 0.00858 for the second.

Going from “GAGCTCACATGGACCGGTTTTCCCGGTAATCCGTATTTGAT (site GAGCACACTAT)” to “GAGCTCACATGGACCGGTTTTCCCGGTAATCCGTATTTGAT (site GAGCCCACTAT)”, the “recombinant UMI read abundance (log10)” value rises from 0.159 to 0.905.

“GAGCTCACATGGACCGGTTTTCCCGGTAATCCGTATTTGAT (site GAGCGCACTAT)” and “GAGCTCACATGGACCGGTTTTCCCGGTAATCCGTATTTGAT (site GAGCTAACTAT)” are the same in “recombinant UMI read abundance (log10)” value: 0 for the first, 0 for the second.

“GAGCTCACATGGACCGGTTTTCCCGGTAATCCGTATTTGAT (site GAGCTCACTAA)” and “GAGCTCACATGGACCGGTTTTCCCGGTAATCCGTATTTGAT (site GAGCTCACTAC)” are within 0.2 log units of each other in “recombinant UMI read abundance (log10)” value: 0.00273 for the first, 0 for the second.

First: GAGCTCACATGGACCGGTTTTCCCGGTAATCCGTATTTGAT (site GAGCTCACTAG)
Second: GAGCTCACATGGACCGGTTTTCCCGGTAATCCGTATTTGAT (site GAGCTCACTAT)
The “recombinant UMI read abundance (log10)” value of the first is lower: 0.209 for the first, 2.18 for the second.

Compared with “GAGCTCACATGGACCGGTTTTCCCGGTAATCCGTATTTGAT (site GAGCTCACTCT)”, “GAGCTCACATGGACCGGTTTTCCCGGTAATCCGTATTTGAT (site GAGCTCACTGT)” is higher in “recombinant UMI read abundance (log10)” value: 0.206 for the first, 0.768 for the second.

“GAGCTCACATGGACCGGTTTTCCCGGTAATCCGTATTTGAT (site GAGCTCACTTT)” and “GAGCTCACATGGACCGGTTTTCCCGGTAATCCGTATTTGAT (site GAGCTCCCTAT)” are within 0.2 log units of each other in “recombinant UMI read abundance (log10)” value: 0.125 for the first, 0.00734 for the second.

First: GAGCTCACATGGACCGGTTTTCCCGGTAATCCGTATTTGAT (site GAGCTCGCTAT)
Second: GAGCTCACATGGACCGGTTTTCCCGGTAATCCGTATTTGAT (site GAGCTCTCTAT)
The “recombinant UMI read abundance (log10)” value of the first is lower: 0.318 for the first, 0.783 for the second.

Going from “GAGCTCACATGGACCGGTTTTCCCGGTAATCCGTATTTGAT (site GAGCTGACTAT)” to “GAGCTCACATGGACCGGTTTTCCCGGTAATCCGTATTTGAT (site GAGCTTACTAT)”, the “recombinant UMI read abundance (log10)” value rises from 0.0158 to 0.342.

“GAGCTCACATGGACCGGTTTTCCCGGTAATCCGTATTTGAT (site GAGGTCACTAT)” and “GAGCTCACATGGACCGGTTTTCCCGGTAATCCGTATTTGAT (site GAGTTCACTAT)” are within 0.2 log units of each other in “recombinant UMI read abundance (log10)” value: 0.0104 for the first, 0.209 for the second.

“GAGCTCACATGGACCGGTTTTCCCGGTAATCCGTATTTGAT (site GATCTCACTAT)” and “GAGCTCACATGGACCGGTTTTCCCGGTAATCCGTATTTGAT (site GCGCTCACTAT)” are within 0.2 log units of each other in “recombinant UMI read abundance (log10)” value: 0.0468 for the first, 0.011 for the second.

“GAGCTCACATGGACCGGTTTTCCCGGTAATCCGTATTTGAT (site GGGCTCACTAT)” and “GAGCTCACATGGACCGGTTTTCCCGGTAATCCGTATTTGAT (site GTGCTCACTAT)” are within 0.2 log units of each other in “recombinant UMI read abundance (log10)” value: 0.394 for the first, 0.296 for the second.

Compared with “GAGCTCACATGGACCGGTTTTCCCGGTAATCCGTATTTGAT (site TAGCTCACTAT)”, “GAGCTCTCATGGACCGGTTTTCCCGGTAATCCGTATTTGAC (site GAGCTCTCTGT)” is higher in “recombinant UMI read abundance (log10)” value: 1.66 for the first, 3.55 for the second.

“GAGCTTACATGGACCGGTTTTCCCGGTAATCCGTATTTGAT (site GAGCTAACTAT)” and “GAGCTTACATGGACCGGTTTTCCCGGTAATCCGTATTTGAT (site GAGCTCACTAT)” are within 0.2 log units of each other in “recombinant UMI read abundance (log10)” value: 0.136 for the first, 0.0125 for the second.

Going from “GAGCTTACATGGACCGGTTTTCCCGGTAATCCGTATTTGAT (site GAGCTGACTAT)” to “GAGCTTACATGGACCGGTTTTCCCGGTAATCCGTATTTGAT (site GAGCTTACTAT)”, the “recombinant UMI read abundance (log10)” value rises from 0.0138 to 1.77.

Compared with “GAGGAGGCATGGACCGGTTTTCCCGGTAATCCGTATTTGTG (site GAGGAGGCTCA)”, “GAGGAGGCATGGACCGGTTTTCCCGGTAATCCGTATTTGTG (site GCGGAGGCTCA)” is lower in “recombinant UMI read abundance (log10)” value: 0.576 for the first, 0.367 for the second.

First: GAGGAGGCATGGACCGGTTTTCCCGGTAATCCGTATTTGTG (site GGGGAGGCTCA)
Second: GAGGAGGCATGGACCGGTTTTCCCGGTAATCCGTATTTGTG (site GTGGAGGCTCA)
The “recombinant UMI read abundance (log10)” value of the first is lower: 0.0134 for the first, 0.26 for the second.

Going from “GAGGCAACATGGACCGGTTTTCCCGGTAATCCGTATTTGCT (site GAGGCAACTAG)” to “GAGGGTTCATGGACCGGTTTTCCCGGTAATCCGTATTTGCG (site GAGGGTTCTCG)”, the “recombinant UMI read abundance (log10)” value rises from 1.66 to 2.63.

Going from “GAGGTTCCATGGACCGGTTTTCCCGGTAATCCGTATTTGGC (site GAGGTTCCTGC)” to “GAGTAATCATGGACCGGTTTTCCCGGTAATCCGTATTTGGG (site GAGTAATCTCC)”, the “recombinant UMI read abundance (log10)” value rises from 0 to 1.57.

Compared with “GAGTAGGCATGGACCGGTTTTCCCGGTAATCCGTATTTGAT (site GAGTAGGCTAT)”, “GAGTAGGCATGGACCGGTTTTCCCGGTAATCCGTATTTGGG (site GAGTAGGCTCC)” is lower in “recombinant UMI read abundance (log10)” value: 1.96 for the first, 0.566 for the second.

“GAGTCATCATGGACCGGTTTTCCCGGTAATCCGTATTTGGT (site GAGTCATCTAC)” and “GAGTCCCCATGGACCGGTTTTCCCGGTAATCCGTATTTGTC (site GAGTCCCCTGA)” are within 0.2 log units of each other in “recombinant UMI read abundance (log10)” value: 1.02 for the first, 0.99 for the second.

First: GAGTGATCATGGACCGGTTTTCCCGGTAATCCGTATTTGCT (site GAGTGATCTAG)
Second: GAGTTCGCATGGACCGGTTTTCCCGGTAATCCGTATTTGGA (site GAGTTCGCTTC)
The “recombinant UMI read abundance (log10)” value of the first is higher: 2.62 for the first, 1.08 for the second.

Compared with “GATAAATCATGGACCGGTTTTCCCGGTAATCCGTATTTGAC (site GATAAATCTGT)”, “GATAAGTCATGGACCGGTTTTCCCGGTAATCCGTATTTGCC (site GATAAGTCTGG)” is higher in “recombinant UMI read abundance (log10)” value: 1.03 for the first, 2.1 for the second.

Going from “GATACGACATGGACCGGTTTTCCCGGTAATCCGTATTTGTT (site GATACGACTAA)” to “GATACTGCATGGACCGGTTTTCCCGGTAATCCGTATTTGCA (site GATACTGCTTG)”, the “recombinant UMI read abundance (log10)” value rises from 0.259 to 1.61.

“GATACTGCATGGACCGGTTTTCCCGGTAATCCGTATTTGTC (site GATACTGCTGA)” and “GATAGGTCATGGACCGGTTTTCCCGGTAATCCGTATTTGGA (site GATAGGTCTTC)” are within 0.2 log units of each other in “recombinant UMI read abundance (log10)” value: 1.28 for the first, 1.15 for the second.

Going from “GATATAGCATGGACCGGTTTTCCCGGTAATCCGTATTTGGT (site GATATAGCTAC)” to “GATATATCATGGACCGGTTTTCCCGGTAATCCGTATTTGCG (site GATATATCTCG)”, the “recombinant UMI read abundance (log10)” value rises from 1.08 to 1.42.

In the case of “GATCAAACATGGACCGGTTTTCCCGGTAATCCGTATTTGAA (site GATCAAACTTT)”, the “recombinant UMI read abundance (log10)” value is reported as 0.
